In patent publication US20260364184A1, “COMPOUND BASED ON OXOISOINDOLINYL-SUBSTITUTED TETRAHYDROPYRIMIDINE-DIONE AND USE THEREOF” (GLUETACS THERAPEUTICS (SHANGHAI) CO., LTD., priority 2023, published 2026):
Where two headings read alike, the source gives them in different places.

Key:
[1] = tested on: Human acute lymphocytic leukemia T lymphocytes cell line (CCRF-CEM); assay: Inhibition of CCRF-CEM cell proliferation (CellTiter luminescent viability); format: cell-based; conditions: Homo sapiens, 96 h, Table IF2, AR inhibitor-based; for inhibition at 0.01 µM: 10 nM, read-out: Inhibition Rate at 10 nM (%); for inhibition at 0.5 µM: 500 nM, read-out: Inhibition Rate at 500 nM (%)
Protocol: (§1) The tumor cells used herein were cultured in a cell culture medium listed in table 3 at 37 °C in an incubator with 5% CO2. Prior to experimentation, all cell lines used were correctly identified by STR profiling, and tested negative for mycoplasma contamination using a mycoplasma detection kit through routine screenings.
(§2) The IC50 values of the compounds of the present disclosure (including the compounds in Table 1, Table 2, and Examples 1-468) were determined using the CellTiter-Meiluncell Luminescent Cell Viability Assay Kit from Dalian Meilun Biotech Co., Ltd. The detailed procedure is as follows: Tumor cells were seeded in 96-well cell culture plates at the densities specified in Table 4. On the following day, the test compounds of the present disclosure were subjected to serial dilution. The dilution can be performed according to one of the following two methods: • (1) The first dilution method: The test compounds of the present disclosure (including the compounds in Table 1, Table 2, and Examples 1-468) were subjected to 5-fold serial dilutions starting from a highest concentration of 2000 μM, resulting in a total of 9 concentrations from high to low (2000, 400, 80, 16, 3.2, 0.64, 0.128, 0.0256, 0.00512 μM). Subsequently, 0.5 μL of the test compound dilution was transferred into the 96-well plate containing the cells, with each well containing 100 μL of cell culture medium. […] Into the 96-well plate, the diluted test compounds and corresponding detection reagents were added, resulting in final test compound concentrations of 500 nM and 10 nM, respectively. The experimental procedure is described below using the diluted 2 μM test compound as an example.
(§3) 0.5 μL of the aforementioned diluted compound of the present disclosure (including the compounds in Table 1, Table 2, and Examples 1-468) was added to the seeded cells in 100 μL of medium, yielding a final test compound concentration of 10 nM. After the cells were treated with the compounds of the present disclosure for a specified period, the cell viability assay reagent was added to the culture medium according to the kit's instructions to determine cell viability. […] All controls were treated using the same procedure as the compounds of the present disclosure. The growth inhibition curves for the compounds of the present disclosure were plotted using Prism GraphPad software, and the IC50 values were calculated therefrom.

[2] = tested on: Human T lymphocytic leukemia cell line (Jurkat); assay: Inhibition of Jurkat cell proliferation (CellTiter luminescent viability); format: cell-based; conditions: Homo sapiens, Table IF3, AR inhibitor-based, 96 hours; for inhibition at 0.01 µM: 10 nM, read-out: Inhibition Rate at 10 nM (%); for inhibition at 0.5 µM: 500 nM, read-out: Inhibition Rate at 500 nM (%)
Protocol: as §1, §2, §3

[3] = tested on: Human diffuse large B-cell lymphoma cell line (TMD8); assay: Inhibition of TMD8 cell proliferation (CellTiter luminescent viability); format: cell-based; conditions: Homo sapiens, TMD8, 96 h, Table IF1, AR inhibitor-based; for inhibition at 0.01 µM: TMD8, 10 nM, read-out: Inhibition Rate at 10 nM (%); for inhibition at 0.5 µM: TMD8, 500 nM, read-out: Inhibition Rate at 500 nM (%)
Protocol: as §1, §2, §3

[4] = tested on: Human B-Cell Lymphoma Cells (RPMI-8226); assay: Inhibition of RPMI-8226 cell proliferation (CellTiter luminescent viability); format: cell-based; conditions: RPMI-8226, 500 nM, read-out: Inhibition Rate at 500 nM (%)
Protocol: as §1, §2, §3

[5] = as above; format: cell-based; conditions: Homo sapiens, read-out: Inhibition Rate at 10 nM (%)
Protocol: as §1, §2, §3

[6] = tested on: Human large cell immunoblastic lymphoma cell line SR; assay: Inhibition of SR cell proliferation (CellTiter luminescent viability); format: cell-based; conditions: Table IB1, ALK inhibitor-based, 96 hours, read-out: Inhibitory activity (IC50, nM) on tumor cell proliferation, SR
Protocol: as §1, §2, §3

[7] = biological target: T1, human Cereblon WT GST-tagged protein (CRBN) (Homo sapiens, UniProt Q96SW2); assay: CRBN binding by HTRF (Cereblon binding kit)
T1 construct: purchased CISBIO 64BDCRBNPEH
T1 sequence (Q96SW2 whole entry): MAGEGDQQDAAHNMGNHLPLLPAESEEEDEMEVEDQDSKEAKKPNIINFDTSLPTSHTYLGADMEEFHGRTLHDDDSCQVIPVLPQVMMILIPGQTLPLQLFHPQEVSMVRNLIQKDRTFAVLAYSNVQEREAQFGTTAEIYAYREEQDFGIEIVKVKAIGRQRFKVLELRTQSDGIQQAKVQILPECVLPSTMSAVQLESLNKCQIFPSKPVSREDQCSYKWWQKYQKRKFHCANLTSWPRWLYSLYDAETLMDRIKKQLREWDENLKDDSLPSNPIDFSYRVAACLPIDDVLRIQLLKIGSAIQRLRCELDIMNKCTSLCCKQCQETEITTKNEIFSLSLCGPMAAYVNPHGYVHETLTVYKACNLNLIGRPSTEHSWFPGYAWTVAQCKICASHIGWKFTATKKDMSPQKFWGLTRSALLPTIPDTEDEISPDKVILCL
Protocol: The CEREBLON BINDING kits (specification: 10,000 tests; product number: Catalog #64BDCRBNPEH; CISBIO company) was used to determine the CRBN binding ability of the compounds to be tested through a HTRF method (homogeneous time-resolved fluorescence). The specific methods are as follows: • 1. According to the instructions of the CEREBLON BINDING KITS, serial dilutions were performed for the test compounds of the present disclosure (including the compounds in Table 1, Table 2, and Examples 1-468) and for lenalidomide. Specifically, diluent #9 (1×) solution was used as the diluent, and multiple concentration gradients were set. The dilution operation can be performed according to one of the following two methods: • (1) The first dilution method: The test compounds of the present disclosure (including the compounds in Table 1, Table 2, and Examples 1-468) were subjected to 5-fold serial dilutions starting from a highest concentration of 40 μM, resulting in a total of 7 concentrations from high to low (40, 8, 1.6, 0.32, 0.064, 0.0128, 0.00256 μM). Subsequently, the diluted test compounds and corresponding detection reagents were added to each well of a 96-well plate, resulting in final test compound concentrations of 10, 2, 0.4, 0.08, 0.016, 0.0032, and 0.00064 μM, respectively. • (2) As an alternative, a second dilution method can be used: The test compounds of the present disclosure (including the compounds in Table 1, Table 2, and Examples 1-468) were subjected to 4-fold gradient dilutions starting from a highest concentration of 8 μM, resulting in 2 concentrations (8 μM, 2 μM). Into the 96-well plate, the diluted test compounds and corresponding detection reagents were added, resulting in final test compound concentrations of 2 μM and 0.5 μM, respectively. The experimental procedure is described below using the diluted 8 μM test compound and lenalidomide solutions as examples. • 2. 2.5 μL of the above 8 μM of the tested compounds and lenalidomide solution, as well as the same volume of diluent #9 (1×) solution (solvent control group, Std0) were added to each well of a 96-well plate, respectively. Then, 2.5 μL of human Cereblon WT GST-tagged protein solution was added to each well. Finally, 5 μL of the thoroughly mixed Thalidomide-Re reagent and GST Eu antibody working solution were added to each of the aforementioned wells. The final concentration of the tested compounds and lenalidomide in each well was 2 μM. • 3. The blank control wells were sequentially added with 2.5 μL of diluent #9 (1×) solution, 2.5 μL of PROTAC binding buffer, and 5 μL of thoroughly mixed Thalidomide-Re reagent and GST Eu antibody working solution. • 4. After sealing and incubating the solutions in the aforementioned wells at room temperature for 3 hours, the absorbance values at emission wavelengths of 620 nm and 665 nm were detected by the HTRF method using a Spark microplate reader (V3.1 SP1).
The corresponding CRBN binding inhibition rate was calculated using the following method:
Rcompound=OD 665 nmcompound/OD 620 nmcompound−OD 665 nmcontrol/OD 620 nmcontrol
RStd0=OD 665 nmStd0/OD 620 nmStd0−OD 665 nmcontrol/OD 620 nmcontrol inhibition rate (%)=(1−Rcompound/RStd0)*100
Note: OD 665 nmcompound is the absorbance value of each well of the compounds to be tested of the present disclosure at an emission wavelength of 665 nm. OD 620 nmcompound is the absorbance value of each well of the compounds to be tested of the present disclosure at an emission wavelength of 620 nm. OD 665 nmcontrol is the absorbance value of the blank control well at an emission wavelength of 665 nm. OD 620 nmcontrol is the absorbance value of the blank control well at an emission wavelength of 620 nm. OD 665 nmStd0 is the absorbance value of the solvent control well at an emission wavelength of 665 nm. OD 620 nmStd0 is the absorbance value of the solvent control well at an emission wavelength of 620 nm.

In the case of `N#Cc1ccc(O[C@H]2CC[C@H](NC(=O)c3ccc(N4CCC(CN5CCN(c6cccc7c6C(=O)N(N6CCC(=O)NC6=O)C7=O)CC5)CC4)nn3)CC2)cc1Cl` [GT-05230, N-((1r,4r)-4-(3-chloro-4-cyanophenoxy)cyclohexyl)-6-(4-((4-(2-(2,4-dioxotetrahydropyrimidin-1(2H)-yl)-1,3-dioxoisoindolin-4-yl)piperazin-1-yl)methyl)piperidin-1-yl)pyridazine-3-carboxamide], the inhibition at 0.01 µM [1] is reported as 10 to 15%, the inhibition at 0.5 µM [1] is reported as 20 to 30% and the inhibition at 0.01 µM [2] is reported as 10 to 15%. For the same compound, the inhibition at 0.5 µM [2] was 20 to 30%, the inhibition at 0.01 µM [3] was 5 to 10% and the inhibition at 0.5 µM [3] was 20 to 25%.
For `N#Cc1ccc(O[C@H]2CC[C@H](NC(=O)c3ccc(N4CCC(CN5CCN(C6CCN(c7ccc8c(c7)C(=O)N(N7CCC(=O)NC7=O)C8=O)CC6(F)F)CC5)CC4)nn3)CC2)cc1Cl` (stereo partly shown) [GT-05235, N-((1r,4r)-4-(3-chloro-4-cyanophenoxy)cyclohexyl)-6-(4-((4-(1-(2-(2,4-dioxotetrahydropyrimidin-1(2H)-yl)-1,3-dioxoisoindolin-5-yl)-3,3-difluoropiperidin-4-yl)piperazin-1-yl)methyl)piperidin-1-yl)pyridazine-3-carboxamide], the inhibition at 0.01 µM [1] was 10 to 15%, the inhibition at 0.5 µM [1] was 30 to 40% and the inhibition at 0.01 µM [2] was 5 to 10%. It also gave an inhibition at 0.5 µM [2] of 30 to 40%, an inhibition at 0.01 µM [3] of 5 to 10% and an inhibition at 0.5 µM [3] of 35 to 40%.
Compound `N#CC1(CNc2nc(-c3cc(NC4CCN(CC5CCN(c6cccc7c6C(=O)N(N6CCC(=O)NC6=O)C7=O)CC5)CC4)ncc3Cl)cs2)CCOCC1` [GT-08345, 4-(((4-(5-chloro-2-((1-((1-(2-(2,4-dioxotetrahydropyrimidin-1(2H)-yl)-1,3-dioxoisoindolin-4-yl)piperidin-4-yl)methyl)piperidin-4-yl)amino)pyridin-4-yl)thiazol-2-yl)amino)methyl)tetrahydro-2H-pyran-4-carbonitrile] has an inhibition at 0.5 µM [4] of 5 to 10% and an inhibition at 0.01 µM ([5]; RPMI-8226, 10 nM) of 20 to 30%.
`CNC(=O)c1ccc(N2C(=S)N(c3ccc(C#N)c(C(F)(F)F)c3)C(=O)C2(C)C)cc1F` [Enzalutamide, reference compound] gave an inhibition at 0.01 µM [1] of 0 to 5%, an inhibition at 0.5 µM [1] of 0 to 5% and an inhibition at 0.01 µM [2] of 5 to 10%. The inhibition at 0.5 µM [2] was 5 to 10%, the inhibition at 0.01 µM [3] was 10 to 15% and the inhibition at 0.5 µM [3] was 10 to 15%.
In the case of `N#Cc1ccc(O[C@H]2CC[C@H](NC(=O)c3ccc(N4CCC(CN5CC6CC(C5)N6c5ccc6c(c5)C(=O)N(N5CCC(=O)NC5=O)C6=O)CC4)nn3)CC2)cc1Cl` [GT-05231, N-((1r,4r)-4-(3-chloro-4-cyanophenoxy)cyclohexyl)-6-(4-((6-(2-(2,4-dioxotetrahydropyrimidin-1(2H)-yl)-1,3-dioxoisoindolin-5-yl)-3,6-diazabicyclo[3.1.1]heptan-3-yl)methyl)piperidin-1-yl)pyridazine-3-carboxamide], the inhibition at 0.01 µM [1] is reported as 5 to 10%, the inhibition at 0.5 µM [1] is reported as 30 to 40% and the inhibition at 0.01 µM [2] is reported as 10 to 15%. For the same compound, the inhibition at 0.5 µM [2] was 30 to 40%, the inhibition at 0.01 µM [3] was 5 to 10% and the inhibition at 0.5 µM [3] was 40 to 60%.
In the case of `CC(C)(O)c1cc2nn(C3CCN(Cc4ccc5c(c4)C(=O)N(N4CCC(=O)NC4=O)C5=O)CC3)cc2cc1NC(=O)c1cccc(C(F)(F)F)n1` [GT-05752, N-(2-(1-((2-(2,4-dioxotetrahydropyrimidin-1(2H)-yl)-1,3-dioxoisoindolin-5-yl)methyl)piperidin-4-yl)-6-(2-hydroxypropan-2-yl)-2H-indazol-5-yl)-6-(trifluoromethyl) picolinamide], the inhibition at 0.5 µM ([4]; Table IA4, IRAK4 inhibitor-based, 96 hours) is reported as 25 to 30% and the inhibition at 0.01 µM ([5]; Table IA4, IRAK4 inhibitor-based, RPMI-8226, 10 nM, 96 hours) is reported as 15 to 20%.
For `COc1cc(N2CCC(N3CCN(C)CC3)CC2)ccc1Nc1ncc(Cl)c(Nc2ccccc2P(C)(C)=O)n1` [brigatinib, Brigatinib, reference compound], the IC50 [6] was 1000 to 5000 nM, the “Inhibition Rate at 0.5 μM (%)” value ([7]; 0.5 μM) was “a (0% < a ≤ 10%)” and the “Inhibition Rate at 2 μM (%)” value ([7]; 2 μM) was “a1 (10% < a1 ≤ 20%)”.
With `N#Cc1ccc(O[C@H]2CC[C@H](NC(=O)c3ccc(N4CCC(CN5C[C@H]6C[C@@H]5CN6c5ccc6c(c5)C(=O)N(N5CCC(=O)NC5=O)C6=O)CC4)nn3)CC2)cc1Cl` [GT-05227, N-((1r,4r)-4-(3-chloro-4-cyanophenoxy)cyclohexyl)-6-(4-(((1R,4R)-5-(2-(2,4-dioxotetrahydropyrimidin-1(2H)-yl)-1,3-dioxoisoindolin-5-yl)-2,5-diazabicyclo[2.2.1]heptan-2-yl)methyl)piperidin-1-yl)pyridazine-3-carboxamide] the inhibition at 0.01 µM [1] was 20 to 30%, the inhibition at 0.5 µM [1] was 20 to 30% and the inhibition at 0.01 µM [2] was 5 to 10%. For the same compound, the inhibition at 0.5 µM [2] was 20 to 30%, the inhibition at 0.01 µM [3] was 15 to 20% and the inhibition at 0.5 µM [3] was 25 to 30%.
